From patent US11766416B2, “Compositions of β-aminoisobutyric acid and methods for use thereof” (Nanjing Nutrabuilding Bio-tech Co., Ltd., priority 2020, dated 2023)

Assays:
Format in all cases: in vivo, C57BL/6 male mice
[1] = Muscular (soleus) and hepatic glycogen content at end of study; settings: HFD-fed obese mice, 150 mg/kg/day oral, relative to same HFD, with or without exercise, without L-BAIBA
Experimental: (§1) 36 C57BL/6 male mice aged about 8 weeks, each having a body mass of approximately 21 g, were randomly assigned to six study groups (GA1, GA2, GB1, GB2, GB3, and GB4) of six mice each. Each animal's body weight is measured by a weight scale and recorded.
(§2) The total experimental time is 16 weeks, divided into two periods: an eight-week induction period and an eight-week treatment period.
(§3) Each study group consisted of 6 animals, and treatment details of the individual study groups are given below: • Group A1 (GA1): Normal mice, maintained on a normal diet (ND) for 8 weeks, receiving neither exercise nor L-BAIBA treatment. • Group A2 (GA2): Normal mice, maintained on a normal diet (ND) for 8 weeks, receiving only L-BAIBA treatment and no exercise. • Group B1 (GB1): Obese mice, maintained on a high-fat diet (HFD) for 8 weeks, receiving neither exercise nor L-BAIBA treatment. • Group B2 (GB2): Obese mice, maintained on HFD for 8 weeks, receiving only exercise and no L-BAIBA treatment. • Group B3 (GB3): Obese mice, maintained on HFD for 8 weeks, receiving only L-BAIBA treatment and no exercise. • Group B4 (GB4): Obese mice, maintained on HFD for 8 weeks, receiving both L-BAIBA treatment and exercise.
Animals receiving L-BAIBA received, via oral administration, 150 mg/kg body weight of L-BAIBA, dissolved in 10 mL/kg body weight of ultrapure water, per day. […]

[2] = Blood metabolism-related biomarkers (TG, TCHO, LDL, VLDL) at end of study; settings: HFD-fed obese mice, 150 mg/kg/day oral, relative to same HFD, with or without exercise, without L-BAIBA
Experimental: as §1, §2, §3
Animals receiving L-BAIBA received, via oral administration, 150 mg/kg body weight of L-BAIBA, dissolved in 10 mL/kg body weight of ultrapure water, per day. Animals not receiving L-BAIBA were administered 10 mL/kg body weight of ultrapure water per day. All animals were maintained in a pathogen-free condition under a strict 12-hour alternate light/dark cycle with 12-15 cycles/hour of air exchange. All animals were provided with access to their respective feeds and water ad libitum. All animals were housed under controlled laboratory conditions of temperature and humidity at 23±2° C. and 50±10% RH.
At the end of the study described in Example 1, blood was collected from all test groups and various clinical parameters/biomarkers related to metabolism were determined: triglyceride (TG), total cholesterol (TCHO), low-density lipoprotein (LDL) and very low-density lipoprotein (VLDL).

[3] = Body weight of high-fat diet obese mice, measured weekly; settings: 150 mg/kg/day oral
Experimental: as §1, §2
as §3, with “and exercise. […]” for “and exercise.”
Throughout the study period, each mouse's body weight was measured weekly by a calibrated electronic digital weighing balance Sartorious BSA32025 (Sartorious AG, Göttingen, Germany). […]

[4] = Serum insulin and leptin by ELISA (insulin and leptin resistance); settings: HFD-fed obese mice, 150 mg/kg/day oral, end of study, relative to same HFD, with or without exercise, without L-BAIBA
Experimental: as §1, §2
as §3, with “and exercise. […]” for “and exercise.”
At the end of the study described in Example 1, serum levels of insulin and leptin were quantified in all treatment groups by standard ELISA methods. […]

[5] = Weekly blood glucose level (tail vein, glucometer)
Experimental: as §1
(§4) The total experimental time is 16 weeks, divided into two periods: an eight-week induction period and an eight-week treatment period. […]
(§5) Throughout the study described in Example 1, glucose levels in each mouse's blood were measured weekly (week 9-16) on the starting day of every week, before the day's exercise and L-BAIBA dosing activities. […] Blood glucose levels were monitored pre-dose and at 15, 30, 60 and 120 minutes after administration of the glucose solution. […] The area under the curve (AUC) was calculated and expressed as percentage values.

[6] = Oral glucose tolerance test (OGTT) on day 113; settings: HFD-fed obese mice, 150 mg/kg/day oral, day 113, glucose 2 g/kg oral; relative to same HFD, with or without exercise, without L-BAIBA; FIGS. 6A-7
Experimental: as §1, §4, §5

C[C@@H](CN)C(=O)O [L-BAIBA, L-β-aminoisobutyric acid]
hepatic glycogen content ([1]; liver main lobe, FIG. 3A): higher
muscular glycogen content ([1]; soleus muscle, FIG. 3B): higher
blood triglyceride (TG) ([2]; FIG. 2A): lower levels
blood total cholesterol (TCHO) ([2]; FIG. 2B): lower levels
blood low-density lipoprotein (LDL) ([2]; FIG. 2C): lower levels
blood very low-density lipoprotein (VLDL) ([2]; FIG. 2D): lower levels
body weight, GB3 relative to GB1 and GB2 ([3]; HFD obese mice, L-BAIBA only, no exercise (GB3), vs untreated (GB1) and exercise only (GB2), FIG. 1): reduced body weight
body weight ([3]; HFD-fed obese mice, 8-week treatment, with or without exercise, relative to same HFD without L-BAIBA): greater reduction in body weight
insulin resistance (serum insulin) ([4]; FIG. 4A): improved
leptin resistance (serum leptin) ([4]; FIG. 4B): improved leptin resistance
blood glucose level of obese mice over the experimental period ([5]; HFD obese mice, 150 mg/kg/day oral, weeks 9-16, compared with normal mice (GA1)): stable level, close to the level of normal mice (GA1)
blood glucose level ([5]; mice receiving 150 mg/kg/day oral, weekly weeks 9-16, GB3 and GB4 relative to GB1 and GB2, FIGS. 5A, 5B): greater reduction in blood glucose level
glucose tolerance (OGTT) [6]: better glucose tolerance
